The record followed here is patent US20230000869A1, “NOVEL ALK2 INHIBITORS AND METHODS FOR INHIBITING BMP SIGNALING” (The Brigham and Women's Hospital, Inc., priority 2017, published 2023).

pIC50: −log10 of the molar value.

The target of one experiment is T1, ALK2 (Homo sapiens, UniProt Q04771).
T1 construct: purchased Life technology (Fredrick, Md.) and/or CARNA BIOSCIENCES Inc. (Kobe, Japan)
T1 sequence (Q04771 21-509): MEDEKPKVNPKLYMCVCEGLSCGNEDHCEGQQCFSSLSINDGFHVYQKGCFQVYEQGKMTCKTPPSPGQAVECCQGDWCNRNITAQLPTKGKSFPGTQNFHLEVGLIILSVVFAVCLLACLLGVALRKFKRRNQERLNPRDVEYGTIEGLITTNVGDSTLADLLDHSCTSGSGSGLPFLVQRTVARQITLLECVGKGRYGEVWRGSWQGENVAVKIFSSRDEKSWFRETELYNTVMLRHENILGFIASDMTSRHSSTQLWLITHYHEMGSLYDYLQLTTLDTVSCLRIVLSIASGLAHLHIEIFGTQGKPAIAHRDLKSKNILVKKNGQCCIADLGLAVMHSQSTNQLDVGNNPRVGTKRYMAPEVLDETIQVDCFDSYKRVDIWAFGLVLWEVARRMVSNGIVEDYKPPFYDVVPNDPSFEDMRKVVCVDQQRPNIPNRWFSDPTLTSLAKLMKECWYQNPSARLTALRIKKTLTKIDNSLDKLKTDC
As to the kind of experiment: TR-FRET enzymatic assay, ALK2 kinase, 1536-well. The experiment is classed as biochemical. The following applies: for IC50 / ALK2 Span: TR-FRET; for IC50: 10 nM ALK, Ulight topo II substrate 50 nM, ATP 10 uM (Table 1); for ALK2 Span: span of the concentration-response curve. An excerpt: (§1) We have developed six ALK kinase enzyme assays for determination of compound activities on ALK1, ALK2, ALK3, ALK4, ALK5 and ALK6. For the assay development, we had tested a number of substrates and assay conditions that led to the final optimized assay protocols with good assay windows with signal to basal (S/B) ratios above 20 fold for all six ALK assays (FIG. 1). In our knowledge, these ALK kinase assays have not been reported elsewhere.
(§2) ALK1 and ALK2-ALK6 were obtained from Life technology (Fredrick, Md.) and CARNA BIOSCIENCES Inc. (Kobe, Japan). Ulight-DNA Topoisomerase 2 alpha (Thr-1342) peptide and Europium anti-phospho-DNA Topoisomerase 2 alpha (Thr-1342) antibody was from Perkin Elmer Inc. The kinase buffer was composed of 50 mM HEPES pH7.0, 10 mM MgCl2, 3 mM MnCl2, 0.005% Tween-20 and 2 mM DTT. The compound plates and the white solid MB assay plates were purchased from Greiner Bio-one (Monroe, N.C.).
(§3) The binding of Eu-anti-phospho-peptide antibody to the phosphorylated Ulight peptide substrate bring both Eu donor and Ulight acceptor dye into close proximity. Upon excitation at 320-340 nm, the emission energy from Eu donor is transferred to Ulight acceptor dye that will generate light at 665 nm. The intensity light emission is proportional to the level of the peptide phosphorylation by ALKs. The assay was optimized and performed in 1536 plate (Table 1). Briefly, the ALKs enzymatic assay was initiated by dispense 2.5 ul enzyme with a final concentration at 10 nM prepared in 1× kinase reaction buffer. The assay plate was then added with compounds with the Pintool station (23 nl/well compound dilutions in DMSO solution) that was followed by incubation at room temperature for 10 minutes. Then 2.5 ul/well substrate was added in which 50 nM peptide substrate mixed with 10 uM, 100 uM or 1 mM ATP (final concentration). The assay plate was incubated at room temperature for 60 minutes and the kinase reaction was stopped by addition of 5 ul/well of 4 nM Eu-anti-phospho-peptide antibody with 12 mM EDTA prepared in 1× detection buffer. The assay plate was measured in an EnVision plate reader (Perkin Elmer) in the TR-FRET detection mode (excitation at 340 nm and emission at 665 nm).

In another experiment the target is T2, ALK5 (Homo sapiens, UniProt P36897).
T2 construct: purchased Life technology (Fredrick, Md.) and/or CARNA BIOSCIENCES Inc. (Kobe, Japan)
T2 sequence (P36897 34-503): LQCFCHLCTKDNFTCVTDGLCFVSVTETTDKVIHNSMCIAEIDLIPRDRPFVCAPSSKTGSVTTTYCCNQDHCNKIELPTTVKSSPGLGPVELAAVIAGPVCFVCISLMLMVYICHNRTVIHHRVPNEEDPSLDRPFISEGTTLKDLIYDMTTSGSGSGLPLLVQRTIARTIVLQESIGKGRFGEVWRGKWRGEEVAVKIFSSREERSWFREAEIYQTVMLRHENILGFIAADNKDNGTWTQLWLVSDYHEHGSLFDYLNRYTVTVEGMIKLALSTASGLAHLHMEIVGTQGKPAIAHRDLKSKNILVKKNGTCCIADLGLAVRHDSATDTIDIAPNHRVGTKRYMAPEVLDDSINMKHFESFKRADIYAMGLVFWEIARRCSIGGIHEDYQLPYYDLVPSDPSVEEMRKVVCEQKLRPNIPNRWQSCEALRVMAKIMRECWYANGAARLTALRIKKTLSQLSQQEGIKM
As to the kind of experiment: TR-FRET enzymatic assay, ALK5 kinase, 1536-well. In kind it is biochemical. The following applies: for IC50: 10 nM ALK, Ulight topo II substrate 50 nM, ATP 10 uM (Table 1); for ALK5 Span: span of the concentration-response curve.
Source text: as §1, §2, §3
Background: In TR-FRET formats the signal depends on donor and acceptor labels being close together.

A further experiment deals with T3, ALK4 (Homo sapiens, UniProt P36896).
T3 construct: purchased Life technology (Fredrick, Md.) and/or CARNA BIOSCIENCES Inc. (Kobe, Japan)
T3 sequence (P36896 24-505): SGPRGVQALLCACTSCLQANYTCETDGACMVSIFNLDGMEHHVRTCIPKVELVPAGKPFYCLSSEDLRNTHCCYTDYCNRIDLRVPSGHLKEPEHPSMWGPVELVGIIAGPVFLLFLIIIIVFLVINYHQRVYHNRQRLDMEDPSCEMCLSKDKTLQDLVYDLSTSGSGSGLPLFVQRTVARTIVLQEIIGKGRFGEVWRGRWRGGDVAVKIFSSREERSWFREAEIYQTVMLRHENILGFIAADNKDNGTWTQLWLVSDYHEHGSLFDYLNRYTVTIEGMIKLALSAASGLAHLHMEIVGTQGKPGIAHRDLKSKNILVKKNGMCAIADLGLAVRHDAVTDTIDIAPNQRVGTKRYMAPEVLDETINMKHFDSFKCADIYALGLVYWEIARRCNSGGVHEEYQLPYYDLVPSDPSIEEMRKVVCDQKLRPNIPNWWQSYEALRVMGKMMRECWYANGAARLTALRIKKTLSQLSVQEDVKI
As to the kind of experiment: TR-FRET enzymatic assay, ALK4 kinase, 1536-well. The experiment is classed as biochemical. Conditions: for IC50: 10 nM ALK, Ulight topo II substrate 50 nM, ATP 10 uM (Table 1); for ALK4 Span: span of the concentration-response curve.
Source text: as §1, §2, §3

The target in another experiment is ACVR2A (Homo sapiens, UniProt P27037). As to the kind of experiment: LanthaScreen Eu kinase binding assay, BMP type II receptor ACVR2A. The following applies: 10-point titration from 10 μM, 3-fold serial dilution, Life Technologies. An excerpt:
(§4) For the detailed description of LanthaScreen™ Eu kinase binding assay condition, please see: https://www.thermofisher.com/us/en/home/industrial/pharma-biopharma/drug-discovery-development/target-and-lead-identification-and-validation/kinasebiology/kinase-activity-assays/lanthascreentm-eu-kinas e-binding-assay/lanthascreen-eu-kinase-binding-assay-validation-table.html.

In a further experiment the test system is BMP6. As to the kind of experiment: Cell assay HTRF BMP6 (Table 15). In kind it is cell-based.
The target of another experiment is TGFβR2 (Homo sapiens, UniProt P37173). As to the kind of experiment: LanthaScreen Eu kinase binding assay, BMP type II receptor TGFbR2. The following applies: 10-point titration from 10 μM, 3-fold serial dilution, Life Technologies.
Source text: as §4

For the next experiment, the system named is TGFb. As to the kind of experiment: Cell assay HTRF TGFb (Table 15). In kind it is cell-based. Conditions: read-out: HRTF TGFb (IC50).

One may read the IC50 as the concentration that gives 50% inhibition. The pIC50 is the IC50 on a negative log10 scale, so that one unit is a factor of ten.

ACVR2A, sequence (P27037 20-513): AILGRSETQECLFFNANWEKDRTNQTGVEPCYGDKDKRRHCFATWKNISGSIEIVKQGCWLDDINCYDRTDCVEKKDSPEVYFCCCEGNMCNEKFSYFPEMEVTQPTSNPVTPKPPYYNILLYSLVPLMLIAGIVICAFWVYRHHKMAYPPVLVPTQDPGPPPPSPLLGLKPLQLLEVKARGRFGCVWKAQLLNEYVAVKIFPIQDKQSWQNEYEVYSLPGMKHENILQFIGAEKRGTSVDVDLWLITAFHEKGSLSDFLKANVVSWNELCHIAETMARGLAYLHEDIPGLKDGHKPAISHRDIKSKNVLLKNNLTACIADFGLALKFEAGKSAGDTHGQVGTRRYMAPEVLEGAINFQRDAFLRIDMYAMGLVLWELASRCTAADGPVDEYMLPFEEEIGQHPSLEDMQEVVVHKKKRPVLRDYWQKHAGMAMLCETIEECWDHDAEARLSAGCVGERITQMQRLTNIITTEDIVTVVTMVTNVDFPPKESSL
TGFβR2, sequence (P37173 23-567): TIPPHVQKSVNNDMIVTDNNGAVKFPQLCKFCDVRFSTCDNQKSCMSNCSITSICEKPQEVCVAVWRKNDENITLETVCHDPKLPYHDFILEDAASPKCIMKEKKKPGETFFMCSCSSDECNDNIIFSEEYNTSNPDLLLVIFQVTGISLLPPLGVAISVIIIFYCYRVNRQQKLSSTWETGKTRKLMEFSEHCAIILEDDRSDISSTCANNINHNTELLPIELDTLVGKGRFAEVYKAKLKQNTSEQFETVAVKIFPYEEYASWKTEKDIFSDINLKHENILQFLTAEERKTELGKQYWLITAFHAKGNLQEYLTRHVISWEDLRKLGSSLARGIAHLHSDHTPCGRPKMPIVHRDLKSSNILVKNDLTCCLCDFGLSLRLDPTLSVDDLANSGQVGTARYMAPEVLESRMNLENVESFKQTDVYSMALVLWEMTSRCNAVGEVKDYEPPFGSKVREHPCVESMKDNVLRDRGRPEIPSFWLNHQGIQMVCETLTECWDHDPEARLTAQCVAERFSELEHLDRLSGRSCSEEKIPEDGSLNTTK

As for `Cc1cc(-c2cnn3cc(N4CCC(N5CCOCC5)CC4)cnc23)c2ccccc2n1` [Compound 11], on ALK2, inhibition was half-maximal at 111 nM (IC50) and the “ALK2 Span” value is on record as around 117.5. Also, on ALK5, 2080 nM corresponded to half-maximal inhibition (IC50) and the “ALK5 Span” value came out at 102.1. For the same compound, on ALK4, the IC50 was 1030 nM and the “ALK4 Span” value is 100.0.
Regarding `COc1cc2c(-c3cnn4cc(N5CCC(N6CCN(C)CC6)CC5)cnc34)ccnc2cc1F` [Compound 15, 7-fluoro-6-methoxy-4-(6-(4-(4-methylpiperazin-1-yl)piperidin-1-yl)pyrazolo[1,5-a]pyrimidin-3-yl)quinoline], on ALK2, the half-inhibitory concentration (IC50) turned out to be 102 nM and the “ALK2 Span” value is around 117.8. Besides, at ALK5, it took 8920 nM to reach half-maximal inhibition (IC50) and the “ALK5 Span” value was 96. Besides, on ALK4, the half-inhibitory concentration (IC50) turned out to be 4210 nM and the “ALK4 Span” value is listed as 101.
On to `c1ccc2c(-c3cnn4cc(-c5ccc(N6CCNCC6)cc5)cnc34)ccnc2c1` [TRND00262637-13], for which the pIC50 was 7.84 on ACVR2A, 7.16 with BMP6, 8.09 on TGFβR2 and 5.03 with TGFb. Besides, at ALK2 (FIG. 3, ATP 10 uM versus 100 uM or 1 mM), the “activity in ALK2 in the presence of 10, 100, or 1,000 uM ATP” value was “activity reduced in the higher ATP concentrations”.
Take `Cc1cc(-c2cnn3cc(N4CCC(N5CCN(C)CC5)CC4)cnc23)c2ccccc2n1` [Compound 8]: the pIC50 on ACVR2A is 5.89; in the experiment on BMP6 it was 6.57; on TGFβR2, 6.72; in the experiment with TGFb, 5.69. In addition, the concentration for half-maximal inhibition (IC50) at ALK2 was determined as 54.3 nM; on ALK5, 2470 nM; at ALK4, 994 nM. The “ALK2 Span” value at ALK2 amounted to 109.4. In addition, the “ALK5 Span” value on ALK5 came to 100.3. Moreover, the “ALK4 Span” value at ALK4 amounted to 96.6.
As for `Cc1cc(-c2cnn3cc(N4CCC(N5CCNCC5)CC4)cnc23)c2ccccc2n1` [Compound 34], at ALK2, the midpoint of inhibition, the IC50, lay at 178 nM and the “ALK2 Span” value was around 117.8. Moreover, on ALK5, the IC50 worked out at 4680 nM and the “ALK5 Span” value is listed as 105.678. Besides, on ALK4, the IC50 was 2030 nM and the “ALK4 Span” value worked out at 101.1.
